In ChEMBL document CHEMBL1255340, “In vitro activities of the Rx-01 oxazolidinones against hospital and community pathogens” (2008):
Converted amounts (≈) assume the structure as drawn. “And” between values parts separate entries of the source, which are not always exact repeats. Equal values may be shown once.

Tests used:
Assay type in all cases: functional
[1] = tested on: Enterococcus faecium; assay: Antimicrobial activity against Enterococcus faecium A5960
[2] = tested on: Haemophilus influenzae; assay: Antimicrobial activity against Haemophilus influenzae A1950
[3] = tested on: Streptococcus pneumoniae; assay: Antimicrobial activity against Streptococcus pneumoniae 02J1258 assessed as log reduction in bacterial growth at 4 times MIC after 24 hrs by time-kill assay
[4] = tested on: Staphylococcus aureus; assay: Antimicrobial activity against methicillin-resistant Staphylococcus aureus BK 11118
[5] = tested on: Enterococcus faecalis; assay: Antimicrobial activity against Enterococcus faecalis A6350
[6] = tested on: Staphylococcus aureus; assay: Antimicrobial activity against Staphylococcus aureus ATCC 29213
[7] = tested on: Enterococcus faecalis; assay: Antimicrobial activity against vancomycin-resistant Enterococcus faecalis 03B1069
[8] = tested on: Enterococcus faecium; assay: Antimicrobial activity against Enterococcus faecium A9621 by broth microdilution method
[9] = tested on: Streptococcus pneumoniae; assay: Antimicrobial activity against Streptococcus pneumoniae harboring erm(B) and mef(A) gene
[10] = tested on: Staphylococcus aureus; assay: Antimicrobial activity against Staphylococcus aureus A8761
[11] = tested on: Streptococcus pneumoniae; assay: Antimicrobial activity against Streptococcus pneumoniae 02J1258
[12] = tested on: Enterococcus faecalis; assay: Antimicrobial activity against Enterococcus faecalis ATCC 29212-P5 harboring G2576U mutation in 23S rRNA
[13] = tested on: Staphylococcus aureus; assay: Antimicrobial activity against Staphylococcus aureus A8833 harboring U2500A mutation in 23S rRNA
[14] = tested on: Enterococcus faecium; assay: Antimicrobial activity against Enterococcus faecium A9650
[15] = tested on: Haemophilus influenzae; assay: Antimicrobial activity against Haemophilus influenzae 54A1100 assessed as log reduction in bacterial growth at 8 times MIC after 24 hrs by time-kill assay
[16] = tested on: Enterococcus faecium; assay: Antimicrobial activity against Enterococcus faecium A8948
[17] = tested on: Enterococcus faecium; assay: Antimicrobial activity against Enterococcus faecium A6345
[18] = tested on: Staphylococcus hominis; assay: Antimicrobial activity against Staphylococcus hominis A7828
[19] = tested on: Staphylococcus aureus; assay: Antimicrobial activity against Staphylococcus aureus pL150
[20] = tested on: Staphylococcus aureus; assay: Antimicrobial activity against methicillin-resistant Staphylococcus aureus BK 11512
[21] = tested on: Streptococcus pneumoniae; assay: Antimicrobial activity against Streptococcus pneumoniae 02J1175
[22] = tested on: Enterococcus faecalis; assay: Antimicrobial activity against Enterococcus faecalis A5962
[23] = tested on: Staphylococcus capitis; assay: Antimicrobial activity against Staphylococcus capitis A8935
[24] = tested on: Staphylococcus epidermidis; assay: Antimicrobial activity against Staphylococcus epidermidis A8934
[25] = tested on: Streptococcus pyogenes; assay: Antimicrobial activity against Streptococcus pyogenes
[26] = tested on: Staphylococcus aureus; assay: Antimicrobial activity against Staphylococcus aureus A7819 harboring G2576U mutation in 23S rRNA
[27] = tested on: Moraxella catarrhalis; assay: Antimicrobial activity against Moraxella catarrhalis
[28] = tested on: Staphylococcus aureus; assay: Antimicrobial activity against Staphylococcus aureus pLXM1 harboring cfr gene
[29] = tested on: Streptococcus pneumoniae; assay: Antimicrobial activity against Streptococcus pneumoniae ribosomal mutant
[30] = tested on: Enterococcus faecalis; assay: Antimicrobial activity against Enterococcus faecalis A6343
[31] = tested on: Enterococcus faecium; assay: Antimicrobial activity against Enterococcus faecium A6349 harboring G2576U mutation in 23S rRNA
[32] = tested on: Streptococcus pneumoniae; assay: Antimicrobial activity against Streptococcus pneumoniae 02J1258 assessed as log reduction in bacterial growth at 8 times MIC after 24 hrs by time-kill assay
[33] = tested on: Staphylococcus aureus; assay: Antimicrobial activity against Staphylococcus aureus A8727
[34] = tested on: Staphylococcus aureus; assay: Antimicrobial activity against Staphylococcus aureus A8831 harboring U2500A mutation in 23S rRNA
[35] = tested on: Enterococcus faecalis; assay: Antimicrobial activity against Enterococcus faecalis ATCC 29212
[36] = tested on: Staphylococcus aureus; assay: Antimicrobial activity against methicillin resistant Staphylococcus aureus 67-0
[37] = tested on: Staphylococcus aureus; assay: Antimicrobial activity against methicillin-susceptible Staphylococcus aureus nosocomial isolate
[38] = tested on: Haemophilus influenzae; assay: Antimicrobial activity against Haemophilus influenzae 54A1100
[39] = tested on: Streptococcus pneumoniae; assay: Antimicrobial activity against Streptococcus pneumoniae harboring erm(B) gene by broth microdilution method; details: Streptococcus pneumoniae; read-out: MIC
[40] = tested on: Streptococcus pneumoniae; assay: Antimicrobial activity against Streptococcus pneumoniae 02J1175 assessed as log reduction in bacterial growth at 8 times MIC after 24 hrs by time-kill assay
[41] = tested on: Haemophilus influenzae; assay: Antimicrobial activity against Haemophilus influenzae A1950 assessed as log reduction in bacterial growth at 4 times MIC after 24 hrs by time-kill assay
[42] = tested on: Streptococcus pneumoniae; assay: Antimicrobial activity against Streptococcus pneumoniae PU1071099 harboring 65WR66 deletion in ribosomal protein L4 by broth microdilution method
[43] = tested on: Haemophilus influenzae; assay: Antimicrobial activity against Haemophilus influenzae 54A1100 assessed as log reduction in bacterial growth at 4 times MIC after 24 hrs by time-kill assay
[44] = tested on: Haemophilus influenzae; assay: Antimicrobial activity against Haemophilus influenzae A1950 assessed as log reduction in bacterial growth at 8 times MIC after 24 hrs by time-kill assay
[45] = tested on: Enterococcus faecium; assay: Antimicrobial activity against Enterococcus faecium A6348 harboring G2576U mutation in 23S rRNA
[46] = tested on: Streptococcus pneumoniae; assay: Antimicrobial activity against Streptococcus pneumoniae 02J1175 assessed as log reduction in bacterial growth at 4 times MIC after 24 hrs by time-kill assay
[47] = tested on: Enterococcus faecium; assay: Antimicrobial activity against Enterococcus faecium A6349
[48] = tested on: Enterococcus faecalis; assay: Antimicrobial activity against Enterococcus faecalis A7789
[49] = tested on: Enterococcus faecium; assay: Antimicrobial activity against Enterococcus faecium A8130
[50] = tested on: Staphylococcus aureus; assay: Antimicrobial activity against Staphylococcus aureus A7820
[51] = tested on: Enterococcus faecium; assay: Antimicrobial activity against Enterococcus faecium A5959
[52] = tested on: Staphylococcus aureus; assay: Antimicrobial activity against Staphylococcus aureus A7817
[53] = tested on: Enterococcus faecium; assay: Antimicrobial activity against Enterococcus faecium A8767
[54] = tested on: Enterococcus faecalis; assay: Antimicrobial activity against vancomycin-resistant Enterococcus faecalis nosocomial isolate
[55] = tested on: Chlamydia pneumoniae; assay: Antimicrobial activity against Chlamydophila pneumoniae isolated from human respiratory tract by broth microdilution method
[56] = tested on: Metamycoplasma hominis; assay: Antimicrobial activity against Mycoplasma hominis isolated from human respiratory tract by broth microdilution method
[57] = tested on: Chlamydia trachomatis; assay: Antimicrobial activity against Chlamydia trachomatis isolated from human respiratory tract by broth microdilution method

Compound: CC(=O)NC[C@H]1CN(c2ccc(-c3ccc(CNCCCF)cc3)c(F)c2)C(=O)O1
- MIC [1]: 4 µg/mL (≈ 9.58 µM)
- MIC [2]: 4 µg/mL (≈ 9.58 µM)
- FC [3]: >3
- MIC [4]: 1 µg/mL (≈ 2.4 µM)
- MIC [5]: 1 µg/mL (≈ 2.4 µM)
- MIC [6]: 2 µg/mL (≈ 4.79 µM)
- MIC [7]: 0.5 µg/mL (≈ 1.2 µM)
- MIC [8]: 4 µg/mL (≈ 9.58 µM)
- MIC [9]: ≤ 0.25 µg/mL
- MIC [10]: 8 µg/mL (≈ 19.2 µM)
- MIC [11]: 0.25 µg/mL (≈ 0.599 µM)
- MIC [12]: 2 µg/mL (≈ 4.79 µM)
- MIC [13]: 32 µg/mL (≈ 76.7 µM)
- MIC [14]: 1 µg/mL (≈ 2.4 µM)
- FC [15]: >3
- MIC [16]: 0.5 µg/mL (≈ 1.2 µM)
- MIC [17]: 4 µg/mL (≈ 9.58 µM)
- MIC [18]: 4 µg/mL (≈ 9.58 µM)
- MIC [19]: 0.5 µg/mL (≈ 1.2 µM)
- MIC [20]: 2 µg/mL (≈ 4.79 µM)
- MIC [21]: 0.125 µg/mL (≈ 0.299 µM)
- MIC [22]: 4 µg/mL (≈ 9.58 µM)
- MIC [23]: 1 µg/mL (≈ 2.4 µM)
- MIC [24]: 4 µg/mL (≈ 9.58 µM)
- MIC [25]: 0.25 µg/mL (≈ 0.599 µM)
- MIC ([25]; Streptococcus pyogenes, read-out: MIC): 0.125 µg/mL (≈ 0.299 µM)
- MIC [26]: 16 µg/mL (≈ 38.3 µM)
- MIC [27]: 2 µg/mL (≈ 4.79 µM)
- MIC ([27]; Moraxella catarrhalis, read-out: MIC): 1 µg/mL (≈ 2.4 µM)
- MIC [28]: 1 µg/mL (≈ 2.4 µM)
- MIC [29]: ≤ 0.25 µg/mL
- MIC [30]: 2 µg/mL (≈ 4.79 µM)
- MIC [31]: 1 µg/mL (≈ 2.4 µM)
- FC [32]: >3
- MIC [33]: 4 µg/mL (≈ 9.58 µM)
- MIC [34]: 64 µg/mL (≈ 153 µM)
- MIC [35]: 1 µg/mL (≈ 2.4 µM)
- MIC [36]: 1 µg/mL (≈ 2.4 µM)
- MIC [37]: 1 µg/mL (≈ 2.4 µM)
- MIC ([37]; Staphylococcus aureus, read-out: MIC): 0.5 µg/mL (≈ 1.2 µM)
- MIC [38]: 2 µg/mL (≈ 4.79 µM)
- MIC [39]: ≤ 0.25 µg/mL
- FC [40]: >3
- FC [41]: >3
- MIC [42]: 0.5 µg/mL (≈ 1.2 µM)
- FC [43]: >3
- FC [44]: >3
- MIC [45]: 4 µg/mL (≈ 9.58 µM)
- FC [46]: >3
- MIC [47]: 1 µg/mL (≈ 2.4 µM)
- MIC [48]: 4 µg/mL (≈ 9.58 µM)
- MIC [49]: 2 µg/mL (≈ 4.79 µM)
- MIC [50]: 16 µg/mL (≈ 38.3 µM)
- MIC [51]: 4 µg/mL (≈ 9.58 µM)
- MIC [52]: 16 µg/mL (≈ 38.3 µM)
- MIC [53]: 2 µg/mL (≈ 4.79 µM)
- MIC [54]: 0.5 µg/mL (≈ 1.2 µM)
- MIC ([54]; Enterococcus faecalis, read-out: MIC): ≤ 0.25 µg/mL

Compound: CC[C@H]1OC(=O)[C@H](C)[C@@H](O[C@H]2C[C@@](C)(OC)[C@@H](O)[C@H](C)O2)[C@H](C)[C@@H](O[C@@H]2O[C@H](C)C[C@H](N(C)C)[C@H]2O)[C@](C)(O)C[C@@H](C)C(=O)[C@H](C)[C@@H](O)[C@]1(C)O [ERYTHROMYCIN]
- MIC [55]: 0.5 µg/mL (≈ 0.681 µM)
- MIC [56]: 16 µg/mL and 32 µg/mL
- MIC [57]: 0.12 µg/mL and 0.25 µg/mL
